Among the data in the RepoRT retention time repository (doi:10.1093/pcp/pcn183) are LC retention time values, retold here.

Counter-ions that a name gives are not always drawn.

The data set is described as follows: RP, Waters ACQUITY UPLC BEH C18, 38 °C, 0.24 mL/min; A: water + 0.1% formic acid, pH 3; B: acetonitrile + 0.1% formic acid, pH 3; gradient (min/%B) 0/0 0.25/0 0.4/9 0.8/17 1.9/100 2.1/100 2.11/0 3/0. Particulars: stereoisomer not certain.
As to `CC(C(=O)O)C(=O)O` [Methylmalonic acid], the LC retention time is 0.54 min.

For the compound `N=c1nc(N2CCCCC2)cc(N)n1O` [Minoxidil], the LC retention time was found to be 1.32 min.

On to `CC(=O)NCCCNCCCCNCCCN` [N1-Acetylspermine Trihydrochloride], for which the LC retention time turned out to be 0.14 min.

As for `CN(C)c1ccccc1` [N,N-Dimethylaniline], the LC retention time came to 1.11 min.

For `CN(C)C=O` [N,N-Dimethylformamide(DMF)], the LC retention time came out at 0.51 min.

Regarding `CCCCCCCCCCCCCCCC(O)C(CO)NC(=O)CCCCCCC` [N-Octanoylsphinganine,D-erythro], the LC retention time came out at 0.56 min.

In the case of `CC=C(C)C(=O)NCC(=O)O` [N-Tigloylglycine], the LC retention time stood at 1.18 min.

For the compound `CC(=O)NCCCCN` [N-acetyl putrescine hydrochloride], the LC retention time came to 0.23 min.

As to `CC(=O)N[C@@H]1C(O)O[C@H](CO)[C@@H](O)[C@@H]1O` (stereo partly drawn) [N-acetyl-D-mannosamine], the LC retention time came out at 0.18 min.

With `CC(=O)NC1C(O)CC(O)(C(=O)O)OC1C(O)C(O)CO` (stereo unspecified) [N-acetylneuraminic acid,Type IV-S,Synthetic], the LC retention time came to 0.18 min.

In the case of `CC(=O)OC(CC(=O)O)C[N+](C)(C)C` [O-Acety-L-carnitine hydrochloride], the LC retention time amounted to 0.33 min.

`C[N+](C)(C)CCOP(=O)(O)O` [O-Phosphocholine]: the LC retention time worked out at 0.17 min.

For the compound `NCCOP(=O)(O)O` [O-Phosphorylethanolamine], the LC retention time amounted to 0.16 min.

For `CC(=O)OC[C@H](N)C(=O)O` [O-acetyl-L-serine hydrochloride], the LC retention time is 0.19 min.

Regarding `COc1cc(-c2[o+]c3cc(O)cc(O)c3cc2OC2OC(CO)C(O)C(O)C2O)cc(OC)c1O` (stereo unspecified) [Oenin], the LC retention time worked out at 1.29 min.

For the compound `COc1ccc(-c2coc3cc(OC4OC(CO)C(O)C(O)C4O)ccc3c2=O)cc1` (stereo unspecified) [Ononin], the LC retention time worked out at 1.52 min.

Regarding `O=c1cc(-c2ccc(O)c(O)c2)oc2c(C3OC(CO)C(O)C(O)C3O)c(O)cc(O)c12` (stereo unspecified) [Orientin], the LC retention time stood at 1.35 min.

As for `O=c1[nH]c(=O)c2cn[nH]c2[nH]1` [Oxypurinol], the LC retention time was found to be 0.7 min.

As for `O=S(=O)(O)CCN1CCN(CCS(=O)(=O)O)CC1` [PIPES], the LC retention time was found to be 0.16 min.

Consider `OCC1OC(OCC2OC(O)(CO)C(O)C2O)C(O)C(O)C1O` (stereo unspecified) [Palatinose Monohydrate], for which the LC retention time turned out to be 0.19 min.

As to `OCC1OC(Oc2cc3c(OC4OC(CO)C(O)C(O)C4O)cc(O)cc3[o+]c2-c2ccc(O)cc2)C(O)C(O)C1O` (stereo unspecified) [Pelargonin chloride], the LC retention time was found to be 1.14 min.

As to `COc1cc(-c2[o+]c3cc(O)cc(O)c3cc2OC2OCC(O)C(O)C2O)ccc1O` (stereo not drawn) [Peonidin-3-O-alpha-arabinopyranoside], the LC retention time was 1.3 min.

For the compound `COc1cc(-c2[o+]c3cc(O)cc(O)c3cc2OC2OC(CO)C(O)C(O)C2O)cc(O)c1O` (stereo not drawn) [Petunidin-3-O-beta-glucopyranoside], the LC retention time came out at 1.22 min.

Regarding `O=C(O)CNC(=O)Cc1ccccc1` [Phenaceturic acid], the LC retention time turned out to be 1.36 min.

As to `O=C(CCc1ccc(O)cc1)c1c(O)cc(O)cc1OC1OC(CO)C(O)C(O)C1O` (stereo unspecified) [Phloridzin], the LC retention time turned out to be 1.49 min.

On to `CCCCCCCCCC(=O)OCC(O)COP(=O)([O-])OCC[N+](C)(C)C` (stereo unspecified) [Phosphocholine,1-Decanoyl-2-Hydroxy-sn-Glycero-3-], for which the LC retention time was determined as 1.65 min.

In the case of `CCCCCCCCCCCC(=O)OCC(O)COP(=O)([O-])OCC[N+](C)(C)C` (stereo unspecified) [Phosphocholine,1-Lauroyl-2-Hydroxy-sn-Glycero-3-], the LC retention time was found to be 1.79 min.

For the compound `COc1ccc(C2CC(=O)c3c(O)cc(OC4OC(CO)C(O)C(O)C4OC4OC(C)C(O)C(O)C4O)cc3O2)cc1` (stereo unspecified) [Poncirin], the LC retention time worked out at 1.56 min.

As to `CN1C=CC=CC1=CN=O` [Pyridine-2-aldoxime methochloride], the LC retention time was 0.25 min.

`Cc1ncc(CO)c(CO)c1O` [Pyridoxine]: the LC retention time came out at 0.53 min.

On to `O=c1c(O[C@@H]2O[C@H](CO)[C@@H](O)[C@H](O)[C@H]2O)c(-c2ccc(O[C@@H]3O[C@H](CO)[C@@H](O)[C@H](O)[C@H]3O)c(O)c2)oc2cc(O)cc(O)c12` [Quercetin-3,4'-O-di-beta-glucopyranoside], for which the LC retention time is 1.32 min.

On to `O=c1c(OC2OCC(O)C(O)C2O)c(-c2ccc(O)c(O)c2)oc2cc(O)cc(O)c12` [Quercetin-3-D-xyloside], for which the LC retention time was 1.43 min.

In the case of `CC(=O)OCC1OC(Oc2c(-c3ccc(O)c(O)c3)oc3cc(O)cc(O)c3c2=O)C(O)C(O)C1O` (stereo unspecified) [Quercetin-3-O-glucose-6''-acetate], the LC retention time worked out at 1.46 min.

As for `CC1OC(Oc2c(-c3ccc(O)c(O)c3)oc3cc(O)cc(O)c3c2=O)C(O)C(O)C1O` (stereo unspecified) [Quercitrin], the LC retention time was 1.46 min.

For the compound `CC(O)CN` (stereo not drawn) [R-(-)-1-Amino-2-propanol], the LC retention time came out at 0.17 min.

Regarding `C[S+](CCC(N)C(=O)[O-])CC1OC(n2cnc3c(N)ncnc32)C(O)C1O` [S-(5'-Adenosyl)-L-methionine chloride], the LC retention time is 0.19 min.

Regarding `N[C@@H](CSCC(=O)O)C(=O)O` [S-Carboxymethyl-L-cysteine], the LC retention time was 0.2 min.

Turning to `CC(O)C(=O)SCC(NC(=O)CCC(N)C(=O)O)C(=O)NCC(=O)O` (stereo unspecified) [S-Lactoylglutathione], the LC retention time amounted to 1.06 min.

In the case of `CSC[C@H](N)C(=O)O` [S-Methyl-L-cysteine], the LC retention time came to 0.2 min.

Consider `NC(CSS(=O)(=O)O)C(=O)O` (stereo unspecified) [S-Sulfocysteine], for which the LC retention time was determined as 0.17 min.

With `Cc1cc2nc3cc(C)c(N)cc3[n+](-c3ccccc3)c2cc1N` [Safranine], the LC retention time was determined as 1.57 min.

As to `O=C(O)c1ccccc1O` [Salicylic Acid], the LC retention time came to 1.55 min.

For the compound `CNCC(=O)O` [Sarcosine], the LC retention time turned out to be 0.16 min.

Regarding `COc1cc2c(cc1O)C1Cc3ccc(OC)c(O)c3CN1CC2` (stereo unspecified) [Scoulerin], the LC retention time came to 1.37 min.

In the case of `O=C(O)CCCCCCCCC(=O)O` [Sebacic acid], the LC retention time is 1.58 min.

`NCCc1c[nH]c2ccc(O)cc12` [Serotonin hydrochloride]: the LC retention time is 1.08 min.

As for `COc1cc(C=CC(=O)O)cc(OC)c1O` [Sinapic acid], the LC retention time amounted to 1.44 min.

As to `COc1cc(C=CCO)cc(OC)c1O` [Sinapyl alcohol], the LC retention time was determined as 2.13 min.

As for `COc1ccc(-c2coc3cc(OC4OC(CO)C(O)C(O)C4O)cc(O)c3c2=O)cc1` (stereo unspecified) [Sissotrin], the LC retention time came out at 1.61 min.

For `CC(=O)C(=O)O` [Sodium Pyruvate], the LC retention time came to 0.22 min.

In the case of `O=C(O)C(=O)Cc1ccccc1` [Sodium phenylpyruvate], the LC retention time was 1.36 min.

`CC1CCC2(NC1)OC1CC3C4CC=C5CC(O)CCC5(C)C4CCC3(C)C1C2C` (stereo unspecified) [Solasodine]: the LC retention time amounted to 1.72 min.

Take `NCCCCNCCCN` [Spermidine]: the LC retention time was 0.14 min.

With `NCCCNCCCCNCCCN` [Spermine], the LC retention time is 0.14 min.

With `O=C(O)CCCCCCC(=O)O` [Suberic acid], the LC retention time stood at 1.4 min.

With `O=C(O)CCC(=O)O` [Succinic acid], the LC retention time was determined as 0.49 min.

`OCC1OC(OC2(CO)OC(CO)C(O)C2O)C(O)C(O)C1O` (stereo unspecified) [Sucrose]: the LC retention time was 0.22 min.

Consider `NCCS(=O)(=O)O` [Taurine], for which the LC retention time worked out at 0.16 min.

For `Cc1ncc(C[n+]2csc(CCO)c2C)c(N)n1` [Thiamine hydrochloride], the LC retention time was 0.19 min.

With `Cc1ncc(C[n+]2csc(CCOP(=O)(O)O)c2C)c(N)n1` [Thiamine monophosphate chloride dihydrate], the LC retention time is 0.19 min.

Regarding `Cc1cn(C2CC(O)C(CO)O2)c(=O)[nH]c1=O` (stereo unspecified) [Thymidine], the LC retention time came out at 1.11 min.

Turning to `O=C(C=Cc1ccc(O)cc1)OCC1OC(Oc2c(-c3ccc(O)cc3)oc3cc(O)cc(O)c3c2=O)C(O)C(O)C1O` (stereo unspecified) [Tiliroside], the LC retention time was found to be 1.57 min.

For `C[n+]1cccc(C(=O)[O-])c1` [Trigonelline hydrochloride], the LC retention time was 0.19 min.

For `C[N+](C)(C)[O-]` [Trimethylamine N-oxide dihydrate], the LC retention time was found to be 0.18 min.

As to `CN1C2CCC1CC(=O)C2` [Tropinone], the LC retention time came out at 0.24 min.

On to `NCCc1ccc(O)cc1` [Tyramine], for which the LC retention time was determined as 0.67 min.

Regarding `O=c1ccn(C2OC(COP(=O)(O)OP(=O)(O)OC3OCC(O)C(O)C3O)C(O)C2O)c(=O)[nH]1` (stereo unspecified) [UDP-xylose], the LC retention time stood at 0.21 min.

With `O=c1cc[nH]c(=O)[nH]1` [Uracil], the LC retention time is 0.31 min.

Regarding `O=c1ccn(C2OC(COP(=O)(O)O)C(O)C2O)c(=O)[nH]1` (stereo unspecified) [Uridine-5'-monophosphate], the LC retention time is 0.26 min.

With `O=c1ccn(C2OC(CO)C(O)C2O)c(=O)[nH]1` (stereo unspecified) [Uridine], the LC retention time stood at 0.66 min.

Consider `O=c1cc(-c2ccc(O)cc2)oc2c(C3OC(CO)C(O)C(O)C3O)c(O)cc(O)c12` (stereo unspecified) [Vitexin], for which the LC retention time amounted to 1.39 min.

In the case of `OC1COC(OC2COC(O)C(O)C2O)C(O)C1O` (stereo unspecified) [Xylobiose], the LC retention time worked out at 0.18 min.

For the compound `O=P(O)(O)O[C@H]1O[C@H](CO)[C@H](O)[C@H](O)[C@H]1O` [alpha-D-Galactose-1-phosphate dipotassium salt pentahydrate], the LC retention time turned out to be 0.16 min.

Turning to `NCCC(=O)O` [beta-Alanine], the LC retention time stood at 0.16 min.

As for `NC(=O)c1ccc[n+](C2OC(COP(=O)([O-])O)C(O)C2O)c1` (stereo not drawn) [beta-Nicotinamide mononucleotide], the LC retention time came out at 0.24 min.

As to `C=CC(C)(O)CCC=C(C)CCC=C(C)C` (stereo not drawn) [cis-Nerolidol], the LC retention time was 1.81 min.
